Measurements reported in paper PMC9404985, “Development of Dicationic Bisguanidine-Arylfuran Derivatives as Potent Agents against Gram-Negative Bacteria” (Antibiotics, 2022).

Tested on: P. aeruginosa (CCUG #59347)
Experiment: Antibacterial activity against isolates (Omnilog, Biolog redox dye)
Assay type: cell-based, Pseudomonas aeruginosa
Settings: Pseudomonas aeruginosa, CCUG59347; ca-MH broth, 24 h, 37 °C
Experimental: (§1) The antibacterial activities of eight compounds (1, 3, 4, 6, 8, 10, 16, and 17) were tested against 10 different isolates of Gram-negative bacteria from human and other sources, two E. coli (CCUG #67180 and CCUG #17620/ATCC #25922, control strain), two K. pneumoniae (CCUG #58547 and CCUG #225T), two P. aeruginosa (CCUG #17619 and CCUG #59347), two A. baumannii (CCUG #57035 and CCUG #57250), E. cloacae (CCUG #6323T), and E. hormaechei (CCUG #58962) in a 96-well plate format. […] Bacterial mass from the ten isolates grown overnight on horse blood or Mueller–Hinton agar plates was suspended in ca-MH and adjusted to a final inoculum cell density of ~5 × 10^5 CFU/mL. For all assays, Biolog redox dye A diluted 100× from the stock solution was used for measurements of all ten isolates (up to a total volume of 120 µL per well). All plates included one well per isolate with only inoculum and dye but no test compound (i.e., positive control) and one well per isolate with inoculum, dye and DMSO diluted 1667×, corresponding to the DMSO concentration in the wells with the highest concentration of test compound. All measurements were performed using the Omnilog microplate reader (Biolog, Hayward, CA, USA) where the 96-well plates were read at 15 min intervals for a total of 24 h at 37 °C.

SMILES	EC50	EC90
COc1cc(NC(=N)N)ccc1-c1ccc(-c2ccc(NC(=N)N)cc2OC)o1 [Compound 6, 2,5-Bis(4-guanidino-2-methoxyphenyl)furan]	54.8 µM	65.3 µM
Cc1cc(NC(=N)N)ccc1-c1ccc(-c2ccc(NC(=N)N)cc2C)o1 [Compound 4, 2,5-Bis(4-guanidino-2-methylphenyl)furan]	66.8 µM	77 µM

Same assay, conditions: SI = ((EC50 MCF-7 + EC50 HepG2)/2)/EC50 bacterial strain

SMILES	Selectivity index P. aeruginosa (CCUG #59347)
COc1cc(NC(=N)N)ccc1-c1ccc(-c2ccc(NC(=N)N)cc2OC)o1 [Compound 6, 2,5-Bis(4-guanidino-2-methoxyphenyl)furan]	2.6
Cc1cc(NC(=N)N)ccc1-c1ccc(-c2ccc(NC(=N)N)cc2C)o1 [Compound 4, 2,5-Bis(4-guanidino-2-methylphenyl)furan]	1.1

Tested on: K. pneumoniae (CCUG #58547)
Experiment: as above
Assay type: cell-based, Klebsiella pneumoniae
Settings: Klebsiella pneumoniae, CCUG58547; ca-MH broth, 24 h, 37 °C
Experimental: as §1

SMILES	EC50	EC90
COc1cc(NC(=N)N)ccc1-c1ccc(-c2ccc(NC(=N)N)cc2OC)o1 [Compound 6, 2,5-Bis(4-guanidino-2-methoxyphenyl)furan]	13 µM	13.7 µM
Cc1cc(NC(=N)N)ccc1-c1ccc(-c2ccc(NC(=N)N)cc2C)o1 [Compound 4, 2,5-Bis(4-guanidino-2-methylphenyl)furan]	17.1 µM	22.4 µM

Same assay, conditions: SI = ((EC50 MCF-7 + EC50 HepG2)/2)/EC50 bacterial strain

SMILES	Selectivity index K. pneumoniae (CCUG #58547)
COc1cc(NC(=N)N)ccc1-c1ccc(-c2ccc(NC(=N)N)cc2OC)o1 [Compound 6, 2,5-Bis(4-guanidino-2-methoxyphenyl)furan]	11.1
Cc1cc(NC(=N)N)ccc1-c1ccc(-c2ccc(NC(=N)N)cc2C)o1 [Compound 4, 2,5-Bis(4-guanidino-2-methylphenyl)furan]	4.4

Tested on: P. aeruginosa (CCUG #17619)
Experiment: as above
Assay type: cell-based, Pseudomonas aeruginosa
Settings: Pseudomonas aeruginosa, CCUG17619; ca-MH broth, 24 h, 37 °C
Experimental: (§2) The antibacterial activities of eight compounds (1, 3, 4, 6, 8, 10, 16, and 17) were tested against 10 different isolates of Gram-negative bacteria from human and other sources, two E. coli (CCUG #67180 and CCUG #17620/ATCC #25922, control strain), two K. pneumoniae (CCUG #58547 and CCUG #225T), two P. aeruginosa (CCUG #17619 and CCUG #59347), two A. baumannii (CCUG #57035 and CCUG #57250), E. cloacae (CCUG #6323T), and E. hormaechei (CCUG #58962) in a 96-well plate format. The compounds to test were 3-fold diluted in six steps in cation-adjusted Mueller-Hinton (ca-MH) broth to final concentrations spanning from 30 to 0.12 µM, i.e., a 1667–416,667 times dilution from the 50 mM stocks. Bacterial mass from the ten isolates grown overnight on horse blood or Mueller–Hinton agar plates was suspended in ca-MH and adjusted to a final inoculum cell density of ~5 × 10^5 CFU/mL. For all assays, Biolog redox dye A diluted 100× from the stock solution was used for measurements of all ten isolates (up to a total volume of 120 µL per well). All plates included one well per isolate with only inoculum and dye but no test compound (i.e., positive control) and one well per isolate with inoculum, dye and DMSO diluted 1667×, corresponding to the DMSO concentration in the wells with the highest concentration of test compound. All measurements were performed using the Omnilog microplate reader (Biolog, Hayward, CA, USA) where the 96-well plates were read at 15 min intervals for a total of 24 h at 37 °C.

SMILES	EC50	EC90
COc1cc(NC(=N)N)ccc1-c1ccc(-c2ccc(NC(=N)N)cc2OC)o1 [Compound 6, 2,5-Bis(4-guanidino-2-methoxyphenyl)furan]	24.6 µM	28.7 µM
Cc1cc(NC(=N)N)ccc1-c1ccc(-c2ccc(NC(=N)N)cc2C)o1 [Compound 4, 2,5-Bis(4-guanidino-2-methylphenyl)furan]	17.9 µM	25.4 µM

Same assay, conditions: SI = ((EC50 MCF-7 + EC50 HepG2)/2)/EC50 bacterial strain

SMILES	Selectivity index P. aeruginosa (CCUG #17619)
COc1cc(NC(=N)N)ccc1-c1ccc(-c2ccc(NC(=N)N)cc2OC)o1 [Compound 6, 2,5-Bis(4-guanidino-2-methoxyphenyl)furan]	5.9
Cc1cc(NC(=N)N)ccc1-c1ccc(-c2ccc(NC(=N)N)cc2C)o1 [Compound 4, 2,5-Bis(4-guanidino-2-methylphenyl)furan]	4.2

Tested on: A. baumannii (CCUG #57250)
Experiment: as above
Assay type: cell-based, Acinetobacter baumannii
Settings: Acinetobacter baumannii, CCUG57250, 24 h, ca-MH broth, 24 h, 37 °C
Experimental: as §2

SMILES	EC90
COc1cc(NC(=N)N)ccc1-c1ccc(-c2ccc(NC(=N)N)cc2OC)o1 [Compound 6, 2,5-Bis(4-guanidino-2-methoxyphenyl)furan]	8.8 µM
Cc1cc(NC(=N)N)ccc1-c1ccc(-c2ccc(NC(=N)N)cc2C)o1 [Compound 4, 2,5-Bis(4-guanidino-2-methylphenyl)furan]	22.5 µM

Same assay, conditions: Acinetobacter baumannii, CCUG57250; ca-MH broth, 24 h, 37 °C

SMILES	EC50
COc1cc(NC(=N)N)ccc1-c1ccc(-c2ccc(NC(=N)N)cc2OC)o1 [Compound 6, 2,5-Bis(4-guanidino-2-methoxyphenyl)furan]	7.6 µM
Cc1cc(NC(=N)N)ccc1-c1ccc(-c2ccc(NC(=N)N)cc2C)o1 [Compound 4, 2,5-Bis(4-guanidino-2-methylphenyl)furan]	15.8 µM

Same assay, conditions: SI = ((EC50 MCF-7 + EC50 HepG2)/2)/EC50 bacterial strain

SMILES	Selectivity index A. baumannii (CCUG #57250)
COc1cc(NC(=N)N)ccc1-c1ccc(-c2ccc(NC(=N)N)cc2OC)o1 [Compound 6, 2,5-Bis(4-guanidino-2-methoxyphenyl)furan]	19.0
Cc1cc(NC(=N)N)ccc1-c1ccc(-c2ccc(NC(=N)N)cc2C)o1 [Compound 4, 2,5-Bis(4-guanidino-2-methylphenyl)furan]	4.8

Tested on: E. coli MG1655 (CGSC #6300)
Experiment: Antibacterial resazurin assay, laboratory strain
Settings: Escherichia coli, MG1655, 18 h, read-out: Eco EC50

SMILES	EC50
COc1cc(NC(=N)N)ccc1-c1ccc(-c2ccc(NC(=N)N)cc2OC)o1 [Compound 6, 2,5-Bis(4-guanidino-2-methoxyphenyl)furan]	35.7 µM
Cc1cc(NC(=N)N)ccc1-c1ccc(-c2ccc(NC(=N)N)cc2C)o1 [Compound 4, 2,5-Bis(4-guanidino-2-methylphenyl)furan]	48.9 µM

Same assay, conditions: Escherichia coli, MG1655, 18 h, read-out: Eco EC90

SMILES	EC90
COc1cc(NC(=N)N)ccc1-c1ccc(-c2ccc(NC(=N)N)cc2OC)o1 [Compound 6, 2,5-Bis(4-guanidino-2-methoxyphenyl)furan]	76.3 µM
Cc1cc(NC(=N)N)ccc1-c1ccc(-c2ccc(NC(=N)N)cc2C)o1 [Compound 4, 2,5-Bis(4-guanidino-2-methylphenyl)furan]	80.8 µM

Same assay, conditions: mean of MCF-7 and HepG2 EC50 over bacterial EC50, laboratory strain

SMILES	Selectivity index E. coli
COc1cc(NC(=N)N)ccc1-c1ccc(-c2ccc(NC(=N)N)cc2OC)o1 [Compound 6, 2,5-Bis(4-guanidino-2-methoxyphenyl)furan]	4.0
Cc1cc(NC(=N)N)ccc1-c1ccc(-c2ccc(NC(=N)N)cc2C)o1 [Compound 4, 2,5-Bis(4-guanidino-2-methylphenyl)furan]	1.5

Tested on: E. cloacae (CCUG #6323T)
Experiment: Antibacterial activity against isolates (Omnilog, Biolog redox dye)
Assay type: cell-based, Enterobacter cloacae
Settings: Enterobacter cloacae; ca-MH broth, 24 h, 37 °C
Experimental: as §2

SMILES	EC50	EC90
COc1cc(NC(=N)N)ccc1-c1ccc(-c2ccc(NC(=N)N)cc2OC)o1 [Compound 6, 2,5-Bis(4-guanidino-2-methoxyphenyl)furan]	5.3 µM	8.4 µM
Cc1cc(NC(=N)N)ccc1-c1ccc(-c2ccc(NC(=N)N)cc2C)o1 [Compound 4, 2,5-Bis(4-guanidino-2-methylphenyl)furan]	3.7 µM	7.4 µM

Same assay, conditions: SI = ((EC50 MCF-7 + EC50 HepG2)/2)/EC50 bacterial strain

SMILES	Selectivity index E. cloacae (CCUG #6323T)
COc1cc(NC(=N)N)ccc1-c1ccc(-c2ccc(NC(=N)N)cc2OC)o1 [Compound 6, 2,5-Bis(4-guanidino-2-methoxyphenyl)furan]	27.4
Cc1cc(NC(=N)N)ccc1-c1ccc(-c2ccc(NC(=N)N)cc2C)o1 [Compound 4, 2,5-Bis(4-guanidino-2-methylphenyl)furan]	20.7

Tested on: not listed separately
Experiment: Cytotoxicity assay (PrestoBlue) MCF-7
Assay type: cell-based
Settings: human, MCF-7 cells (breast cancer cell line), 24 h incubation
Experimental: (§3) The cytotoxicity levels of all compounds were evaluated against human Michigan Cancer Foundation-7 (MCF-7) and Hepatoma G2 cell line (HepG2) cell lines. MCF-7 is an extensively characterized breast cancer cell line isolated in 1970 [41], while HepG2 cells were derived from a hepatoma in 1975 [42]. Both cell lines grow robustly during in vitro culture and have been widely used for cytotoxicity testing. Cells of hepatic origin, such as HepG2, are of particular relevance for toxicity studies as many drugs accumulate in the liver during metabolic conversion. Cells were grown in Dulbecco’s Modified Eagle Medium supplemented with 10% fetal calf serum and kept in exponential growth, as previously reported. Before the assay, cells were reseeded into 96-well microtiter plates at a density allowing continued exponential growth and let to settle for 24 h. The compounds were added from a stock solution in DMSO, for a final concentration of 0.3% v/v of the solvent in the culture medium. After 24 h of incubation in presence of the compound, cell viability was assayed using PrestoBlue Cell Viability Reagent (resazurin-based solution, ThermoFisher, Waltham, MA, USA) according to the manufacturer’s instructions. […] Each assay contained a DMSO control at the equivalent starting concentration, positive control (uninhibited cell growth) and negative control (cell medium only). Survival was expressed as percentage of the solvent-only control. […] The Selectivity Index (SI) for each compound and bacterial strain was calculated as the ratio between the mean of the EC50 values for the two human cell lines and the EC50 for the bacterial strain in question ((EC50 MCF-7 + EC50 HepG2)/2)/EC50 bacterial strain).

SMILES	EC50 at 24 h
COc1cc(NC(=N)N)ccc1-c1ccc(-c2ccc(NC(=N)N)cc2OC)o1 [Compound 6, 2,5-Bis(4-guanidino-2-methoxyphenyl)furan]	74.7 µM
Cc1cc(NC(=N)N)ccc1-c1ccc(-c2ccc(NC(=N)N)cc2C)o1 [Compound 4, 2,5-Bis(4-guanidino-2-methylphenyl)furan]	> 100 µM

Tested on: not listed separately
Experiment: Cytotoxicity assay (PrestoBlue) HepG2
Assay type: cell-based
Settings: human, HepG2 cells (hepatoma cell line), 24 h incubation
Experimental: as §3

SMILES	EC50 at 24 h
COc1cc(NC(=N)N)ccc1-c1ccc(-c2ccc(NC(=N)N)cc2OC)o1 [Compound 6, 2,5-Bis(4-guanidino-2-methoxyphenyl)furan]	213 µM
Cc1cc(NC(=N)N)ccc1-c1ccc(-c2ccc(NC(=N)N)cc2C)o1 [Compound 4, 2,5-Bis(4-guanidino-2-methylphenyl)furan]	51.3 µM

Tested on: E. coli (CCUG #17620/ ATCC #25922)
Experiment: Antibacterial activity against isolates (Omnilog, Biolog redox dye)
Assay type: cell-based, Escherichia coli
Settings: Escherichia coli; ca-MH broth, 24 h, 37 °C
Experimental: as §2

SMILES	EC50	EC90
COc1cc(NC(=N)N)ccc1-c1ccc(-c2ccc(NC(=N)N)cc2OC)o1 [Compound 6, 2,5-Bis(4-guanidino-2-methoxyphenyl)furan]	6.2 µM	7.5 µM
Cc1cc(NC(=N)N)ccc1-c1ccc(-c2ccc(NC(=N)N)cc2C)o1 [Compound 4, 2,5-Bis(4-guanidino-2-methylphenyl)furan]	11.3 µM	18.3 µM

Same assay, conditions: SI = ((EC50 MCF-7 + EC50 HepG2)/2)/EC50 bacterial strain

SMILES	Selectivity index E. coli (CCUG #17620/ ATCC #25922)
COc1cc(NC(=N)N)ccc1-c1ccc(-c2ccc(NC(=N)N)cc2OC)o1 [Compound 6, 2,5-Bis(4-guanidino-2-methoxyphenyl)furan]	23.1
Cc1cc(NC(=N)N)ccc1-c1ccc(-c2ccc(NC(=N)N)cc2C)o1 [Compound 4, 2,5-Bis(4-guanidino-2-methylphenyl)furan]	6.7

Tested on: E. coli (CCUG #67180)
Experiment: as above
Assay type: cell-based, Escherichia coli
Settings: Escherichia coli, CCUG67180, 24 h, ca-MH broth, 24 h, 37 °C
Experimental: as §2

SMILES	EC90
COc1cc(NC(=N)N)ccc1-c1ccc(-c2ccc(NC(=N)N)cc2OC)o1 [Compound 6, 2,5-Bis(4-guanidino-2-methoxyphenyl)furan]	74.4 µM
Cc1cc(NC(=N)N)ccc1-c1ccc(-c2ccc(NC(=N)N)cc2C)o1 [Compound 4, 2,5-Bis(4-guanidino-2-methylphenyl)furan]	25.3 µM

Same assay, conditions: Escherichia coli, CCUG67180; ca-MH broth, 24 h, 37 °C

SMILES	EC50
COc1cc(NC(=N)N)ccc1-c1ccc(-c2ccc(NC(=N)N)cc2OC)o1 [Compound 6, 2,5-Bis(4-guanidino-2-methoxyphenyl)furan]	63.4 µM
Cc1cc(NC(=N)N)ccc1-c1ccc(-c2ccc(NC(=N)N)cc2C)o1 [Compound 4, 2,5-Bis(4-guanidino-2-methylphenyl)furan]	23.1 µM

Same assay, conditions: SI = ((EC50 MCF-7 + EC50 HepG2)/2)/EC50 bacterial strain

SMILES	Selectivity index E. coli (CCUG #67180)
COc1cc(NC(=N)N)ccc1-c1ccc(-c2ccc(NC(=N)N)cc2OC)o1 [Compound 6, 2,5-Bis(4-guanidino-2-methoxyphenyl)furan]	2.3
Cc1cc(NC(=N)N)ccc1-c1ccc(-c2ccc(NC(=N)N)cc2C)o1 [Compound 4, 2,5-Bis(4-guanidino-2-methylphenyl)furan]	3.3
